Test system: WT and dopamine transporter knockout (DAT-KO) mice
Test: Prepulse inhibition in WT and DAT-KO mice
Conditions: 2 mg/kg clozapine i.p.

CN1CCN(C2=Nc3cc(Cl)ccc3Nc3ccccc32)CC1 [clozapine]
PPI in DAT-KO mice: restored | PPI in WT mice: not affected
